The test system of assay [1] is human pancreatic cancer cell line MiaPaCa2 (ATCC CRL-1420). In words: Cell growth assay (CellTiterGlo, 72 hours). The following applies: for IC50: MIA PaCa-2, MiaPaCa2 cells, 72 hours, read-out: IC50 MiaPaCa; for inhibition at 50 µM: MIA PaCa-2, at 50 μM; for inhibition at 50 µM / inhibition at 100 µM: read-out: Inhibition of MiaPaCa growth at indicated concentration; for inhibition at 100 µM: MIA PaCa-2, at 100 μM. In kind it is cell-based. The method in brief:
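MiaPaCa2 cells (10^3/well) seeded in supplemented DMEM overnight, then exposed in quadruplicate to compound at 100 down to 0.1 μM for 72 h at 37° C. Growth read by CellTiterGlo luminescence, medium-only background subtracted, normalised to untreated cells; IC50 = concentration reducing growth to 50%.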
In general terms: In ATP-based viability assays light output follows the ATP content of the culture.

Assay [2] addresses T1, MNK1 (Homo sapiens, UniProt Q9BUB5).
T1 construct: purchased Life Technologies or Carna Biosciences PV6023 or 02-145; host or cells: baculovirus infected insect cells
In words: MNK inhibition assay (Z-Lyte kinase assay, Ser/Thr 7 peptide). In kind it is biochemical. The following applies: for IC50: recombinant GST-MNK1, 3 hours at 31° C.; for inhibition at 1 µM: read-out: Inhibition of MNK1 activity at indicated concentration. The method in brief:
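Recombinant GST-MNK1 from baculovirus-infected insect cells, Z-Lyte Ser/Thr 7 peptide, enzyme set for ~30% phosphorylation in buffer-only wells; 3 hours at 31° C. Compounds at 50–10000 nM (potent ones down to 0.5 nM), at least duplicate. IC50 from % substrate phosphorylation versus buffer-only wells, fluorescence read-out.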

In general, IC50 refers to the concentration at which inhibition is half-maximal.

T1 sequence (Q9BUB5 whole entry): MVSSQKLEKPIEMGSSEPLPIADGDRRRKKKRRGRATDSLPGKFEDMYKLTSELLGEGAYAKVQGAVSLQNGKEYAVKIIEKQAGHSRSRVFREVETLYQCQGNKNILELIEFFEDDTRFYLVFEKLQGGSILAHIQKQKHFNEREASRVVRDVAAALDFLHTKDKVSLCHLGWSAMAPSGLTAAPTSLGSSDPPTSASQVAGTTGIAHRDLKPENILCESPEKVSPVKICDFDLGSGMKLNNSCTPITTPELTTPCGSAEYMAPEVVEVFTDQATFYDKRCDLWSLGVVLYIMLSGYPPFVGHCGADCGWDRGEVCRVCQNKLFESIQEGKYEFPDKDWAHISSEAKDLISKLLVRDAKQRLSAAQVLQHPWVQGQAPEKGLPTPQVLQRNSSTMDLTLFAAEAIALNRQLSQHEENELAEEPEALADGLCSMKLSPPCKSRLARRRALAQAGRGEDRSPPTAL

For the molecule `NCCCOCc1ccc2c(N)ncc(-c3ccc(Cl)c(Cl)c3)c2c1` [Example 111], the IC50 worked out at 8.32 µM in assay [1] and 1.15 µM in assay [2].
On to `Nc1ncc2ccc(CN3CCC(N)CC3)cc2c1-c1cc2ccccc2o1` [Example 164, 6-[(4-Amino-1-piperidyl)methyl]-4-(benzofuran-2-yl)isoquinolin-3-amine], for which the concentration for half-maximal inhibition (IC50) in assay [1] worked out at 6.62 µM; in assay [2], 0.847 µM.
In the case of `Nc1ncc(-c2ccc(O)cc2)c2cc(CN3CCNCC3)ccc12` [Example 93], the inhibition at 50 µM in assay [1] turned out to be 27%. For the same molecule, the IC50 in assay [2] is 0.197 µM.
On to `CN(C)CCNc1ccc2cncc(-c3cc4ccccc4o3)c2c1` [Example 99, N-[4-(Benzofuran-2-yl)-6-isoquinolyl]-N′,N′-dimethyl-ethane-1,2-diamine], for which the IC50 in assay [1] was determined as 4.39 µM. In addition, in assay [2], the inhibition at 1 µM came out at 60%.
Regarding `c1ccc2oc(-c3cncc4ccc(Cn5ccc6cnccc65)cc34)cc2c1` [Example 189, 4-(Benzofuran-2-yl)-6-(pyrrolo[3,2-c]pyridin-1-ylmethyl)isoquinoline], the IC50 in assay [1] is 8.39 µM; in assay [2], 0.011 µM.
For `NC1CCC(NCc2ccc3cncc(-c4ccc(O)cc4)c3c2)CC1` (centres unmarked) [Example 37], in assay [1], the inhibition at 50 µM amounted to 57%. Also, in assay [2], the concentration for half-maximal inhibition (IC50) worked out at 0.336 µM.
Regarding `NC1CCN(Cc2ccc3cncc(-c4ccc(NC(=O)Nc5ccccn5)cc4)c3c2)CC1` [Example 119], the IC50 in assay [1] worked out at 2.56 µM; in assay [2], 0.388 µM.
Consider `COc1cc(CN2CCC(N)CC2)cc2c(-c3cc4ccccc4o3)cncc12` [Example 242, 1-[[4-(Benzofuran-2-yl)-8-methoxy-6-isoquinolyl]methyl]piperidin-4-amine], for which the IC50 in assay [1] was 2.74 µM; in assay [2], 0.164 µM.
As for `Cc1ccc(-c2cncc3ccc(CNc4ccnc5ccccc45)cc23)o1` [Example 209], the IC50 in assay [1] was 7.5 µM; in assay [2] it was 0.056 µM.
Take `NC1CCN(Cc2ccc3cncc(-c4cc5cccnc5o4)c3c2)CC1` [Example 273, 1-[(4-Furo{2,3-b}pyridin-2-yl-6-isoquinolyl)methyl]piperidin-4-amine]: the IC50 in assay [1] stood at 30.4 µM; in assay [2], 0.767 µM.
Taken in the same sequence, the figures for `CN(C)CCOc1ccc2cncc(-c3cc4ccccc4o3)c2c1` [Example 95, 2-[[4-(Benzofuran-2-yl)-6-isoquinolyl]oxy]-N,N-dimethyl-ethanamine] were 8.38 µM and 1.73 µM.
As to `Nc1cc[n+](Cc2ccc3cncc(-c4cc5ccccc5o4)c3c2)nc1` [Example 127], the half-inhibitory concentration (IC50) came to 8.48 µM in assay [1] and 0.021 µM in assay [2].
As to `NCCCOCc1ccc2cncc(-c3ccc(Cl)cc3)c2c1` [Example 106], in assay [1], the IC50 amounted to 20.7 µM. For the same molecule, the inhibition at 1 µM in assay [2] is 34%.
Consider `NC1CCN(Cc2ccc3nncc(-c4ccc(O)cc4)c3c2)CC1` [Example 86], for which the inhibition at 100 µM in assay [1] turned out to be 50%. Moreover, in assay [2], the half-maximal inhibitory concentration (IC50) was determined as 0.174 µM.
For `NC1CCN(Cc2ccc3cncc(-c4cc5ncccc5o4)c3c2)CC1` [Example 276], the IC50 in assay [1] was found to be 15.5 µM; in assay [2], 0.161 µM.
Consider `Clc1cnccc1NCc1ccc2cncc(-c3cc4ccccc4o3)c2c1` [Example 71], for which the half-maximal inhibitory concentration (IC50) amounted to 10.3 µM in assay [1] and 0.128 µM in assay [2].
Regarding `Cc1cc(NCc2ccc3cncc(-c4cc5ccccc5o4)c3c2)cc(C)n1` [Example 126], the IC50 in assay [1] came to 5.5 µM; in assay [2] it was 0.363 µM.
Turning to `NC1CCN(Cc2ccc3cncc(-c4ccc(NC(=O)Nc5cccnc5)cc4)c3c2)CC1` [Example 117], in assay [1], the inhibition at 100 µM is 34%. The IC50 in assay [2] is 0.603 µM.
As to `Nc1ncc(-c2ccccc2)c2cc(CN3CCC(N)CC3)c(Cl)cc12` [Example 264, 6-[(4-Amino-1-piperidyl)methyl]-7-chloro-4-phenyl-isoquinolin-1-amine], the figures for the IC50 in assay [1] and in assay [2] were 5.93 µM and 0.194 µM, respectively.
On to `CN(Cc1ccc2cncc(-c3cc4ccccc4o3)c2c1)c1ccncc1` [Example 67], for which the IC50 in assay [1] stood at 5.58 µM; in assay [2], 0.057 µM.
The matching figures for `Nc1ncc(-c2ccccc2)c2cc(N[C@H]3CC[C@H](N)CC3)ccc12` [Example 317, trans-N6-(4-aminocyclohexyl)-4-phenyl-isoquinoline-1,6-diamine]: 4.58 µM and 0.312 µM.
On to `Nc1ncc(-c2ccccc2)c2cc(O[C@H]3CC[C@H](N)CC3)ccc12` [Example 322], for which the IC50 in assay [1] is 2.17 µM; in assay [2], 0.153 µM.
For the molecule `Nc1ccc2c(ccn2Cc2ccc3cncc(-c4cc5ccccc5o4)c3c2)c1` [Example 192, 1-[[4-(Benzofuran-2-yl)-6-isoquinolyl]methyl]indol-5-amine], the IC50 in assay [1] came out at 26 µM; in assay [2], 1.55 µM.
Taken in the same sequence, the figures for `NC1CCN(Cc2ccc3cncc(-c4cc5ccccc5o4)c3c2)CC1` [Example 1, 1-[[4-(Benzofuran-2-yl)-6-isoquinolyl]methyl]piperidin-4-amine] were 3.54 µM and 0.11 µM.
Take `NC1CCCC(NCc2ccc3cncc(-c4ccc(O)cc4)c3c2)C1` (centres unmarked) [Example 38]: the IC50 in assay [1] amounted to 25 µM; in assay [2] it was 0.351 µM.
Taken in the same sequence, the figures for `NC1CCN(Cc2ccc3cncc(-c4cc5ccccc5o4)c3c2)CC1(F)F` (centres unmarked) [Example 263, 1-[[4-(Benzofuran-2-yl)-6-isoquinolyl]methyl]-3,3-difluoro-piperidin-4-amine] were 9.97 µM and 0.703 µM.
In the case of `COc1cc2cncc(-c3ccccc3)c2cc1CN1CCC(N)CC1` [Example 266, 1-[(7-Methoxy-4-phenyl-6-isoquinolyl)methyl]piperidin-4-amine], the IC50 in assay [1] stood at 14.4 µM; in assay [2] it was 0.059 µM.
With `COc1cc(O[C@H]2CC[C@H](N)CC2)cc2c(-c3cc4ccccc4o3)cnc(N)c12` [Example 323, trans-6-(4-Aminocyclohexoxy)-4-(benzofuran-2-yl)-8-methoxy-isoquinolin-1-amine], the IC50 in assay [1] turned out to be 3.2 µM; in assay [2] it was 0.211 µM.
As for `NC1CCN(Cc2ccc3cncc(-c4ccc5c(c4)OCO5)c3c2)CC1` [Example 199], the figures for the half-maximal inhibitory concentration (IC50) in assay [1] and in assay [2] were 8.67 µM and 0.212 µM, respectively.
`NC1CCN(Cc2ccc3nncc(-c4cc5ccccc5o4)c3c2)CC1` [Example 144, 1-[[4-(Benzofuran-2-yl)cinnolin-6-yl]methyl]piperidin-4-amine]: the figures for the IC50 in assay [1] and in assay [2] were 4.61 µM and 1.89 µM, respectively.
`Nc1ncc(-c2ccc(Cl)cc2)c2cc(CN3CCC(N)CC3)ccc12` [Example 215]: the results for the IC50 in assay [1] and in assay [2] were 3.3 µM and 0.473 µM, respectively.
As to `O=[N+]([O-])c1cnccc1NCc1ccc2cncc(-c3cc4ccccc4o3)c2c1` [Example 75, N-[[4-(Benzofuran-2-yl)-6-isoquinolyl]methyl]-3-nitro-pyridin-4-amine], the 50% inhibitory concentration (IC50) was 18 µM in assay [1] and 2.13 µM in assay [2].
Regarding `NCCCCNCc1ccc2cncc(-c3ccc(O)cc3)c2c1` [Example 35, 4-[6-[(4-Aminobutylamino)methyl]-4-isoquinolyl]phenol], in assay [1], the half-inhibitory concentration (IC50) amounted to 11.8 µM. In assay [2], the inhibition at 1 µM is 56%.
In the case of `NCc1cccc(NCc2ccc3cncc(-c4cc5ccccc5o4)c3c2)c1` [Example 53], the values for the IC50 in assay [1] and in assay [2] were 18.6 µM and 0.58 µM, respectively.
Taken in the same sequence, the figures for `Nc1ncc2ccc(CN3CCNCC3)cc2c1-c1cc2ccccc2o1` [Example 260, 4-(Benzofuran-2-yl)-6-(piperazin-1-ylmethyl)isoquinolin-3-amine] were 17.5 µM and 1.59 µM.
As to `Nc1ncc(-c2cccs2)c2cc(CN3CCC(N)CC3)ccc12` [Example 290], the IC50 in assay [1] turned out to be 5.21 µM; in assay [2], 0.183 µM.
On to `N[C@@H]1CCC[C@@H](Nc2ccc3cncc(-c4cc5ccccc5o4)c3c2)C1` [Example 291], for which the IC50 in assay [1] stood at 4.75 µM; in assay [2], 0.638 µM.
As for `NC1CCN(Cc2cc(Cl)c3cncc(-c4cccs4)c3c2)CC1` [Example 240], the IC50 worked out at 5.76 µM in assay [1] and 0.145 µM in assay [2].
Take `Nc1cc2cncc(-c3cc4ccccc4o3)c2cc1CN1CCC(N)CC1` [Example 254, 6-[(4-Amino-1-piperidyl)methyl]-4-(benzofuran-2-yl)isoquinolin-7-amine]: the concentration for half-maximal inhibition (IC50) in assay [1] turned out to be 6.99 µM; in assay [2], 0.057 µM.
For `NCCCOCc1ccc2cncc(-c3ccc(NC(=O)Nc4ccccc4)cc3)c2c1` [Example 108, 1-[4-[6-(3-Aminopropoxymethyl)-4-isoquinolyl]phenyl]-3-phenyl-urea], the values for the 50% inhibitory concentration (IC50) in assay [1] and in assay [2] were 15 µM and 3.51 µM, respectively.
The matching figures for `c1ccc2oc(-c3cncc4ccc(OC5CCNCC5)cc34)cc2c1` [Example 78, 4-(Benzofuran-2-yl)-6-(4-piperidyloxy)isoquinoline]: 3.46 µM and 0.208 µM.
`NC(=O)c1ccc(-c2cncc3ccc(CN4CCC(N)CC4)cc23)cc1` [Example 20, 4-[6-[(4-Amino-1-piperidyl)methyl]-4-isoquinolyl]benzamide]: in assay [1], the inhibition at 100 µM is 62%. Further, the inhibition at 1 µM in assay [2] was found to be 45%.
In the case of `COc1cc2c(N)ncc(-c3ccccc3)c2cc1CN1CCC(N)CC1` [Example 267, 6-[(4-Amino-1-piperidyl)methyl]-7-methoxy-4-phenyl-isoquinolin-1-amine], the 50% inhibitory concentration (IC50) in assay [1] was 3.93 µM; in assay [2] it was 0.34 µM.

These data come from US20200031811A1, “SUBSTITUTED MONO- AND POLYAZANAPHTHALENE DERIVATIVES AND THEIR USE” (Basilea Pharmaceutica International AG, priority 2015, published 2020).
